Patent publication US20220249399A1, “COMPOSITION COMPRISING AN ANTI-OXIDANT TO PRESERVE CORNEAL TISSUE” (University of lowa Research Foundation, priority 2019, published 2022)
“Also recorded” adds a separate entry of the source. Counter-ions that a name gives are not always drawn.

Tests used:
[1] = test system: immortalized human corneal endothelial cells; experiment: Seahorse XFe24 mitochondrial respiration of immortalized human corneal endothelial cells grown in hyperglycemic medium; type: cell-based; conditions: 25 days of growth in 5.5-13.0 mM glucose, n=18, P<0.0001
Method: (§1) FIG. 40. Mitochondrial respiration assay using Seahorse XFe24 extracellular flux analyzer of immortalized human corneal endothelial cells following 25 days of growth in 5.5-13.0 mM glucose and treated with 8.3 μM PQQ (n=18). Maximal respiration and spare respiratory capacity are lowered in HCECs (P<0.0001) due to hyperglycemic growing conditions.
as §1, with “41.” for “40.”, “1.0 mM NAC” for “8.3 μM PQQ”

[2] = test system: primary cultures of corneal endothelial cells; experiment: Seahorse XFe96 mitochondrial respiration of primary cultures of corneal endothelial cells; type: cell-based, human
Method: (§2) Human corneas were obtained by Iowa Lions Eye Bank (ILEB) from nondiabetic donors 60-75 years old and stored in Optisol GS (Bausch+Lomb, Irvine, Calif.) at 4° C. following procurement in accordance with Eye Bank Association of America and ILEB policies and procedures. Endothelial cells were isolated and cultured in Seahorse XFe96 well plates until they reached confluency. Purity of cell cultures were confirmed with anti-zonula occludens 1 (ZO-1) labeling of cellular tight junctions. Once confluent, cells were treated with different concentrations of cyclodextrin-coenzyme Q10 complex in culture (1 μM, 10 μM, or 100 μM) uncomplexed coenzyme Q10 (100 μM), cyclodextrin alone, or diluent control. Mitochondrial respiration was assayed by measuring oxygen consumption using the Seahorse XFe96 Extracellular Flux Analyzer (Agilent Technologies, Santa Clara, Calif.) over 120 minutes (9-minute intervals). Wells were labeled with a nuclear counterstain (DAPI) and nuclei were counted in each well to normalize respirometry data.
Seahorse respiration assays were conducted with MitoQ with doses ranging from 0 to 10 μM. All experiments were performed on corneal endothelial cells in culture and analyzed using the XFe96 Extracellular Flux Analyzer.
as §2, with “MitoQ with doses ranging from 0 to” for “different concentrations of cyclodextrin-coenzyme Q10 complex in culture (1 μM,”, “μM.” for “μM, or 100 μM) uncomplexed coenzyme Q10 (100 μM), cyclodextrin alone, or diluent control.”

[3] = test system: human donor corneal endothelial cells; experiment: Mitochondrial respiration assay (Seahorse XFe24 extracellular flux analyzer) of donor corneal endothelium after storage in supplemented Optisol GS; type: cell-based; conditions: 1 mM ascorbate-2-phosphate
Method: Human corneal tissue pairs were obtained by Iowa Lions Eye Bank (ILEB) from nondiabetic donors 60-75 years old and stored in Optisol GS (Bausch+Lomb, Irvine, Calif.) at 4° C. following procurement in accordance with Eye Bank Association of America and ILEB policies and procedures. For 5 days prior to testing, but within 9 days of procurement, one stored tissue from a corneal pair was treated with 10 μM CoQ10, while the mate tissue was treated with diluent only as a control. Descemet membrane and endothelial cell punches were collected and mounted onto the bottom of a Seahorse assay plate (cells facing upward). Mitochondrial respiration was assayed by measuring oxygen consumption using the Seahorse XFe24 Extracellular Flux Analyzer (Agilent Technologies, Santa Clara, Calif.) over 120 minutes (9-minute intervals). Punches were labeled with a nuclear counterstain (DAPI) and remaining tissues were mounted onto slides and labeled with 488A-Annexin V, Ethidium Homodimer III, and Hoechst 33342 (Apoptotic, Necrotic, and Healthy Cells Quantification Kit; Biotium, Fremont, Calif.) to assay cell health. Nuclei were counted in each punch to normalize respirometry data. Immunohistochemistry densitometry was measured using ImageJ software.
Human donor whole globe eye pairs were obtained by Iowa Lions Eye Bank (ILEB) and the anterior portion of the eyes were removed. For 14 days, one cornea was stored from a corneal pair treated with 1 mM ascorbate-2-phosphate, while the mate tissue was treated with diluent only as a control. Descemet membrane and endothelial cell punches were collected and mounted onto the bottom of a Seahorse assay plate (cells facing upward). Mitochondrial respiration was assayed by measuring oxygen consumption using the Seahorse XFe24 Extracellular Flux Analyzer (Agilent Technologies, Santa Clara, Calif.) over 120 minutes (9-minute intervals). Punches were labeled with a nuclear counterstain (DAPI) and nuclei were counted in each punch to normalize respirometry data. […]
Tissue preparation and extracellular flux assays for mitochondrial respiration were performed as described in Greiner et al. (2015). In brief, after pre-stripping the EDM, 3 mm diameter EDM punches were mounted in wells of a XF24 microplate (Agilent Technologies, Santa Clara, Calif.). After acclimation for one hour at 37° C. in non-buffered assay media, metabolic activity of the EDM samples was quantified using a commercial kit (XF Cell Mito Stress Test Kits; Agilent Technologies) on a Seahorse XFe24 extracellular flux analyzer (Agilent Technologies). Following extracellular flux analysis, tissues were labeled fluorescently using a 1:1000 Sytox Green nucleic acid stain in the microtiter plate (Life Technologies, Grand Island, N.Y.) and imaged on an Olympus IX-81 inverted microscope (Olympus America, Center Valley, Pa.) using a FITC filter. Cell counts were determined using Image J (https://imagej.nih.gov/ij/download.html) and used to compute the oxygen consumption rate per cell (OCR; pmole/min/cell). Raw OCR values were used to calculate several different key parameters of metabolic function per manufacturer's directions (Agilent Technologies), as in Aldrich et al. (2017). The parameters and calculations used in this study were the main outcome measures, including basal respiration, ATP-associated oxygen consumption, proton [H^+] leak, maximal respiration, spare respiratory capacity, non-mitochondrial respiration, and coupling efficiency as described in Schneider et al. and Goldstein et al. (2018).
Mitochondrial Respiration Assay: 3 mm punches of central and peripheral endothelium-Descemet membrane complex (EDM) were secured to the bottom of cell culture microplate wells or CECs were grown directly onto microplate.

[4] = MitoQ 0 to 10 μM (data not shown)
[5] = MitoQ 0 to 10 μM, control vs 10 μM P<0.001, n=3

Q: Which “maximal respiration and spare respiratory capacity lowered by hyperglycemic growing conditions” value ([1]; 1.0 mM NAC) does the source give for `CC(=O)N[C@@H](CS)C(=O)O` [NAC, N-Acetyl-L-cysteine] here?
A: The value was “mitigates this effect”.

Q: Which “maximal respiration and spare respiratory capacity lowered by hyperglycemic growing conditions” value ([1]; 8.3 μM PQQ) does the source give for `O=C(O)c1cc(C(=O)O)c2c(n1)C(=O)C(=O)c1cc(C(=O)O)[nH]c1-2` [PQQ, pyrroloquinoline quinone] here?
A: The value was “mitigates this effect”.

Q: `COC1=C(OC)C(=O)C(CCCCCCCCCC[P+](c2ccccc2)(c2ccccc2)c2ccccc2)=C(C)C1=O` [MitoQ, mitoquinone mesylate] was tested. Which basal respiration [2, 4] did it give?
A: The basal respiration was “dose dependent reductions”.

Q: What about the maximal respiration [2, 4] of the same molecule?
A: Its maximal respiration is “dose dependent reductions”.

Q: And the non-mitochondrial respiration [2, 4]?
A: The non-mitochondrial respiration was “not influenced”.

Q: What about the proton leak [2, 4] of the same molecule?
A: Its proton leak is “not influenced”.

Q: What about the “ATP linked oxygen consumption (ATP linked respiration)” value [2, 5] of the same molecule?
A: The value was “dose dependent decrease; also recorded: significantly different”.

Q: And the spare respiratory capacity [2, 5]?
A: The spare respiratory capacity was “dose dependent decrease; also recorded: significantly different”.

Q: And the respiratory function ([2]; escalating doses of MitoQ, 0 to 10 μM)?
A: Its respiratory function is “dose dependent decrease in respiratory function; also recorded: decreased in respiratory function”.

Q: How did the “corneal endothelial cell mitochondrial respiration” value [3] turn out when ascorbate-2-phosphate was run?
A: Its value is “did not affect corneal endothelial cell mitochondrial respiration”.

Q: What about the “non-mitochondrial respiration, higher level than untreated control cells” value ([3]; 14 days storage, 5 paired corneas, p-value=0.053) of the same molecule?
A: Its value is 21%.

Q: With cyclodextrin [cyclodextrin alone] as the molecule, how does the “mitochondrial spare respiratory capacity” value ([2]; uncomplexed coenzyme Q10 (100 μM) or cyclodextrin alone vs diluent control) read?
A: The value was “reduces the mitochondrial spare respiratory capacity”.
